Measurements taken from PubChem BioAssay (NCI).
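Five compound concentrations were applied to cells in 96-well plates for 48 hours; endpoints were derived by simple linear interpolation of the resulting dose-response curve. Definition used: TGI = concentration required for complete inhibition of growth.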

Key:
Assay in all cases: growth of human tumour cells (NCI), 48 h
[1] = system: RXF 393 renal
[2] = system: MCF7 breast
[3] = system: LOX IMVI melanoma
[4] = system: ACHN renal
[5] = system: OVCAR-5 ovarian
[6] = system: SK-MEL-28 melanoma
[7] = system: PC-3 prostate
[8] = system: HT29 colon
[9] = system: NCI-H460 lung
[10] = system: EKVX NSCLC

## O=c1[nH]/c(=C/c2ccc(OCc3ccccc3)cn2)c(=O)[nH]/c1=C/c1cccnc1
[1]
  TGI: > 100 µM
[2]
  TGI: > 100 µM
[3]
  TGI: > 100 µM
[4]
  TGI: > 100 µM
[5]
  TGI: > 100 µM
[6]
  TGI: > 100 µM
[7]
  TGI: > 100 µM
[8]
  TGI: > 100 µM
[9]
  TGI: 7.82 µM
[10]
  TGI: > 75.2 µM

## CC1(C)CC(=O)C2=C(C1)OC1=C(CC(C)(C)CC1=O)C2c1ccccc1Cl (stereo not drawn)
[1]
  TGI: > 100 µM
[3]
  TGI: > 100 µM
[4]
  TGI: > 100 µM
[5]
  TGI: > 100 µM
[6]
  TGI: > 100 µM
[7]
  TGI: > 100 µM
[8]
  TGI: > 100 µM
[9]
  TGI: > 100 µM
[10]
  TGI: > 100 µM

## C[N+](C)([O-])Cc1cccc(NC(=O)c2ccc(C(=O)Nc3cccc(C[N+](C)(C)[O-])c3)cc2)c1
[1]
  TGI: > 100 µM
[2]
  TGI: > 100 µM
[3]
  TGI: > 100 µM
[4]
  TGI: > 100 µM
[5]
  TGI: > 100 µM
[6]
  TGI: > 100 µM
[7]
  TGI: > 100 µM
[8]
  TGI: > 100 µM
[9]
  TGI: > 100 µM
[10]
  TGI: > 100 µM

## Nc1c2ccccc2nc2ccc(C(=O)Nc3ccc(S(N)(=O)=O)cc3)cc12
[1]
  TGI: > 100 µM
[2]
  TGI: > 100 µM
[3]
  TGI: > 100 µM
[4]
  TGI: > 100 µM
[5]
  TGI: > 100 µM
[6]
  TGI: > 100 µM
[7]
  TGI: > 100 µM
[8]
  TGI: > 100 µM
[9]
  TGI: > 100 µM
[10]
  TGI: > 100 µM

## C[N+]12C=CC=C1C(N1CCCC1)c1sc(-c3ccc(Cl)cc3)cc12 (stereo not drawn)
[1]
  TGI: 31.9 µM
[2]
  TGI: 28.3 µM
[3]
  TGI: 29.5 µM
[4]
  TGI: > 100 µM
[5]
  TGI: 35.8 µM
[6]
  TGI: 31.6 µM
[7]
  TGI: 29.9 µM
[8]
  TGI: 34.3 µM
[9]
  TGI: 32.6 µM
[10]
  TGI: 79 µM

## CC(C)CCC[C@@H](C)[C@H]1CC[C@H]2[C@@H]3CC=C4CC(OCCCCN(O)CCCSC5OC(CO)C(O)C(O)C5O)CC[C@]4(C)[C@H]3CC[C@]12C (stereo partly drawn)
[1]
  TGI: > 100 µM
[3]
  TGI: 50.7 µM
[4]
  TGI: > 100 µM
[5]
  TGI: > 100 µM
[6]
  TGI: > 100 µM
[8]
  TGI: > 100 µM
[9]
  TGI: > 100 µM
[10]
  TGI: > 100 µM

## CN(C)/C=C/c1ccnc2c1C(=O)c1ccccc1C2=O
[1]
  TGI: > 100 µM
[2]
  TGI: > 44.7 µM
[3]
  TGI: 20.7 µM
[4]
  TGI: > 50.7 µM
[5]
  TGI: 32.5 µM
[6]
  TGI: 5.95 µM
[7]
  TGI: 56.7 µM
[8]
  TGI: 37.9 µM
[9]
  TGI: 7.13 µM
[10]
  TGI: 44.3 µM

## CCCCCCCCCCCCCCCCCc1nc(C#N)c(N)o1
[2]
  TGI: > 100 µM
[3]
  TGI: > 100 µM
[4]
  TGI: > 100 µM
[5]
  TGI: > 100 µM
[6]
  TGI: > 100 µM
[7]
  TGI: > 100 µM
[8]
  TGI: > 100 µM
[10]
  TGI: > 100 µM

## CCC1OC(=O)C(C)C(OC2CC(C)(O)C(O)C(C)O2)C(C)C(O)C(C)(O)CC(C)C(=O)C(C)C(O)C1C (stereo not drawn)
[1]
  TGI: > 300 µM
[2]
  TGI: > 300 µM
[3]
  TGI: > 300 µM
[5]
  TGI: > 300 µM
[6]
  TGI: > 300 µM
[8]
  TGI: > 300 µM
[9]
  TGI: > 300 µM
[10]
  TGI: > 300 µM

## O=C(c1ccccc1)c1cc(-c2ccccc2)c(-c2ccccc2)[nH]c(=O)c1=O
[2]
  TGI: > 100 µM
[3]
  TGI: > 100 µM
[4]
  TGI: > 100 µM
[5]
  TGI: > 100 µM
[6]
  TGI: > 100 µM
[7]
  TGI: > 100 µM
[8]
  TGI: > 100 µM
[9]
  TGI: > 100 µM
[10]
  TGI: > 100 µM

## CC1=CC(=O)C[C@]2(C)[C@@H](O)CC(C(C)CO)C[C@@H]12 (stereo partly drawn)
[1]
  TGI: > 100 µM
[2]
  TGI: > 100 µM
[3]
  TGI: > 100 µM
[4]
  TGI: > 100 µM
[5]
  TGI: > 100 µM
[6]
  TGI: > 100 µM
[8]
  TGI: > 100 µM
[9]
  TGI: > 100 µM
[10]
  TGI: > 100 µM

## Cc1cc(C)n(CN(Cn2nc(C)cc2C)c2ccc(N(Cn3nc(C)cc3C)Cn3nc(C)cc3C)cc2)n1
[1]
  TGI: 42.6 µM
[2]
  TGI: 44.4 µM
[4]
  TGI: 38.2 µM
[5]
  TGI: 51.1 µM
[6]
  TGI: 37.1 µM
[7]
  TGI: 74.6 µM
[8]
  TGI: 45 µM
[9]
  TGI: 63.8 µM
[10]
  TGI: 54.1 µM

## COC(=O)C(I(OS(=O)(=O)c1ccc(C)cc1)c1ccccc1)=P(c1ccccc1)(c1ccccc1)c1ccccc1
[1]
  TGI: 39.2 µM
[2]
  TGI: 94.5 µM
[4]
  TGI: 32.6 µM
[5]
  TGI: 73.1 µM
[6]
  TGI: 28.7 µM
[7]
  TGI: 62 µM
[8]
  TGI: 42.1 µM
[9]
  TGI: > 100 µM
[10]
  TGI: 54.5 µM

## O=C1CSC(c2ccc(Cl)cc2)N1c1ccc(-n2c(-c3ccccc3)nc3ccccc3c2=O)cc1 (stereo not drawn)
[2]
  TGI: > 100 µM
[3]
  TGI: > 100 µM
[4]
  TGI: > 100 µM
[5]
  TGI: > 100 µM
[6]
  TGI: > 100 µM
[7]
  TGI: > 100 µM
[8]
  TGI: > 100 µM
[9]
  TGI: > 100 µM
[10]
  TGI: > 100 µM

## COc1cc2c(oc(=O)c3c4oc([Si](C)(C)C)cc4cc(OC)c23)c2cccc(O)c12
[1]
  TGI: > 100 µM
[3]
  TGI: > 100 µM
[4]
  TGI: > 100 µM
[5]
  TGI: > 100 µM
[6]
  TGI: > 100 µM
[8]
  TGI: > 100 µM
[9]
  TGI: > 100 µM
[10]
  TGI: > 100 µM

## O=C1c2ccccc2C(=O)c2c1c1cc(O)ccc1n2Cc1ccc(Cl)cc1Cl
[1]
  TGI: 9.44 µM
[2]
  TGI: 16.5 µM
[3]
  TGI: 11.4 µM
[5]
  TGI: 5.66 µM
[6]
  TGI: 36.1 µM
[7]
  TGI: 3.97 µM
[8]
  TGI: 51 µM
[9]
  TGI: 11.8 µM

## Cc1[nH]c(=O)nc2c1C(=O)N(C(C)C)C(NC(C)C)S2 (stereo not drawn)
[1]
  TGI: > 100 µM
[2]
  TGI: > 100 µM
[3]
  TGI: > 100 µM
[4]
  TGI: > 100 µM
[5]
  TGI: > 100 µM
[6]
  TGI: > 100 µM
[7]
  TGI: > 100 µM
[8]
  TGI: > 100 µM
[10]
  TGI: > 100 µM

## N#Cc1c(C#N)c(-c2ccco2)n(/N=C/c2ccco2)c1N
[1]
  TGI: 89.1 µM
[2]
  TGI: > 100 µM
[3]
  TGI: > 100 µM
[4]
  TGI: > 100 µM
[5]
  TGI: > 100 µM
[7]
  TGI: > 100 µM
[8]
  TGI: > 100 µM
[9]
  TGI: > 100 µM
[10]
  TGI: > 100 µM

## Cc1cccc2ns[s+]c12
[4]
  TGI: > 100 µM
[5]
  TGI: > 100 µM
[6]
  TGI: > 100 µM
[8]
  TGI: > 100 µM
[9]
  TGI: > 100 µM
[10]
  TGI: > 100 µM

## O=C(N/N=C/c1cc(-c2ccccc2Cl)c(-c2ccccc2Cl)o1)c1ccncc1
[1]
  TGI: > 100 µM
[3]
  TGI: > 100 µM
[4]
  TGI: > 100 µM
[5]
  TGI: > 100 µM
[6]
  TGI: > 100 µM
[8]
  TGI: > 100 µM
[10]
  TGI: > 100 µM

## COc1cc(NS(C)(=O)=O)ccc1N1Cc2cnc3ccc4[nH]ccc1c4c23
[2]
  TGI: > 100 µM
[3]
  TGI: 41.6 µM
[4]
  TGI: > 100 µM
[5]
  TGI: > 100 µM
[6]
  TGI: > 100 µM
[7]
  TGI: > 100 µM
[8]
  TGI: > 100 µM
[9]
  TGI: 43.8 µM
[10]
  TGI: > 100 µM

## CC(C)(C)OC(=O)NCCNC(=O)OCc1ccccc1
[1]
  TGI: > 100 µM
[2]
  TGI: > 100 µM
[4]
  TGI: > 100 µM
[5]
  TGI: > 100 µM
[6]
  TGI: > 100 µM
[7]
  TGI: > 100 µM
[8]
  TGI: > 100 µM
[9]
  TGI: > 100 µM
[10]
  TGI: > 100 µM
